Data from US10149839B2, “Chemical compounds” (AstraZeneca AB, priority 2016, dated 2018).
≈ marks a conversion by molar mass, not a printed value.

Key:
physchem = details: 1-octanol/aqueous buffer, pH 7.4
[1] = biological target: T1, Estrogen Receptor (ERα) in MCF-7 cells (Homo sapiens (Human), UniProt P03372); assay: MCF-7 ER down-regulation assay (immuno-fluorescence); format: cell-based; details: for IC50: 18-22 hours incubation; for % downregulation: shown in brackets where not >90%
[2] = biological target: T1, Estrogen Receptor (ERα) in MCF-7 cells; assay: Western blotting assay, MCF-7 cells; format: cell-based; details: compound 100 nM, 48 h, normalised to 100 nM fulvestrant (100%)
[3] = Thermodynamic solubility (shake flask); format: physicochemical; details: aqueous phosphate buffer, 25 °C, pH 7.4, aqueous buffer, thermodynamic from solid, aqueous phosphate buffer pH 7.4, 24 hours
[4] = biological target: estrogen receptor (ERα) in CAMA-1 cells (Homo sapiens (Human), UniProt P03372); assay: Western blotting assay, CAMA-1 cells; format: cell-based; details: compound 100 nM, 48 h, normalised to 100 nM fulvestrant (100%)
Sequence of estrogen receptor (ERα) in CAMA-1 cells (P03372 whole entry): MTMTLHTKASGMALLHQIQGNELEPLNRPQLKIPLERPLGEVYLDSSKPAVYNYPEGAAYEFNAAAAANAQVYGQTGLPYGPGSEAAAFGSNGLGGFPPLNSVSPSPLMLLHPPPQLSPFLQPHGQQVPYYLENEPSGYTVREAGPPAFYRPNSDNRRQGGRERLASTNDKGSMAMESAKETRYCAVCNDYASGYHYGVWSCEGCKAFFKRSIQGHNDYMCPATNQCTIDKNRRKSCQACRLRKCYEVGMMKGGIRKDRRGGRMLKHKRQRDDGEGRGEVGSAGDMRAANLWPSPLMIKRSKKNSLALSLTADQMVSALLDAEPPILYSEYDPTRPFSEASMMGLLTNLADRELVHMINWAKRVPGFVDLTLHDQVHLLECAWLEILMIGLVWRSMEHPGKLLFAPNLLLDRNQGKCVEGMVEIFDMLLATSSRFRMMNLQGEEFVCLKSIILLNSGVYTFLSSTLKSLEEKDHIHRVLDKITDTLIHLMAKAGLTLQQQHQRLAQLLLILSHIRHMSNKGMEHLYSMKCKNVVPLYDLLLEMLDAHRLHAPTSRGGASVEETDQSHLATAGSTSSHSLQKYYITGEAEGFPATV

[5] = Human plasma protein binding (equilibrium dialysis); format: in vitro ADME; details: dialysis 18 hours

T1 sequence (P03372 whole entry): as above

Compound | logD (physchem) | IC50 [1] | MCF7 Western % ER deg vs Fv [2] | solubility at 24 h [3] | CAMA1 Western % ER deg vs Fv [4] | Human plasma protein binding (% free) [5] | % downregulation [1]
C[C@@H]1Cc2c([nH]c3ccccc23)[C@@H](c2c(F)cc(OCCNCCC(F)F)cc2F)N1CC(C)(C)F [Example 3, N-(2-(3,5-difluoro-4-((1R,3R)-2-(2-fluoro-2-methylpropyl)-3-methyl-2,3,4,9-tetrahydro-1H-pyrido[3,4-b]indol-1-yl)phenoxy)ethyl)-3,3-difluoropropan-1-amine] | > 4.3 | 0.14 nM | 64% | 4 µM (≈ 2.04 µg/mL) | 0% | <2.6 % free | –
COc1cc(OCCNCCCF)ncc1[C@@H]1c2[nH]c3ccccc3c2C[C@@H](C)N1CC1(F)COC1 [Example 7, 3-fluoro-N-(2-((5-((1R,3R)-2-((3-fluorooxetan-3-yl)methyl)-3-methyl-2,3,4,9-tetrahydro-1H-pyrido[3,4-b]indol-1-yl)-4-methoxypyridin-2-yl)oxy)ethyl)propan-1-amine] | 2.3 | 0.51 nM | 74% | > 1000 µM | 48% | 17 % free | –
COc1cc(OCCNCCCF)ccc1[C@@H]1c2[nH]c3ccccc3c2C[C@@H](C)N1CC1(F)COC1 [Example 8, 3-fluoro-N-(2-(4-((1R,3R)-2-((3-fluorooxetan-3-yl)methyl)-3-methyl-2,3,4,9-tetrahydro-1H-pyrido[3,4-b]indol-1-yl)-3-methoxyphenoxy)ethyl)propan-1-amine] | – | – | 77% | – | 38% | – | –
C[C@@H]1Cc2c([nH]c3ccccc23)[C@@H](c2c(F)cc(NCCNCCCF)cc2F)N1CC1(F)CC1 [Example 9, N^1-(3,5-difluoro-4-((1R,3R)-2-((1-fluorocyclopropyl)methyl)-3-methyl-2,3,4,9-tetrahydro-1H-pyrido[3,4-b]indol-1-yl)phenyl)-N^2-(3-fluoropropyl)ethane-1,2-diamine] | – | 0.22 nM | 82% | – | 80% | – | –
COc1cc(OCCNCCCF)ccc1[C@@H]1c2[nH]c3ccccc3c2C[C@@H](C)N1CC1(F)CC1 [Example 11, 3-fluoro-N-(2-(4-((1R,3R)-2-((1-fluorocyclopropyl)methyl)-3-methyl-2,3,4,9-tetrahydro-1H-pyrido[3,4-b]indol-1-yl)-3-methoxyphenoxy)ethyl)propan-1-amine] | – | 0.46 nM | 81% | – | 54% | – | –
COCC(F)(F)CN1[C@H](c2c(F)cc(OCCNCCCF)cc2F)c2[nH]c3ccccc3c2C[C@H]1C [Example 14, N-(2-(4-((1R,3R)-2-(2,2-difluoro-3-methoxypropyl)-3-methyl-2,3,4,9-tetrahydro-1H-pyrido[3,4-b]indol-1-yl)-3,5-difluorophenoxy)ethyl)-3-fluoropropan-1-amine] | 3.6 | 0.64 nM | 61% | 10 µM (≈ 5.26 µg/mL) | 31% | 0.9 % free | (89%)
COc1cc(OCCNCCCF)cnc1[C@@H]1c2[nH]c3ccccc3c2C[C@@H](C)N1CC(C)(C)F [Example 35, 3-fluoro-N-(2-((6-((1S,3R)-2-(2-fluoro-2-methylpropyl)-3-methyl-2,3,4,9-tetrahydro-1H-pyrido[3,4-b]indol-1-yl)-5-methoxypyridin-3-yl)oxy)ethyl)propan-1-amine] | 3.8 | 0.28 nM | 81% | 99 µM (≈ 48.2 µg/mL) | 82% | 2.2 % free | –
COc1cc(OCCNCCCF)ncc1[C@@H]1c2[nH]c3ccccc3c2C[C@@H](C)N1CC(C)(C)F [Example 36, 3-fluoro-N-(2-((5-((1R,3R)-2-(2-fluoro-2-methylpropyl)-3-methyl-2,3,4,9-tetrahydro-1H-pyrido[3,4-b]indol-1-yl)-4-methoxypyridin-2-yl)oxy)ethyl)propan-1-amine] | 3.5 | 0.14 nM | 83% | 291 µM (≈ 142 µg/mL) | 66% | 2.1 % free | –
C[C@@H]1Cc2c([nH]c3ccccc23)[C@@H](c2cnc(OCCNCCCF)cn2)N1CC(C)(C)F [Example 38, 3-fluoro-N-(2-((5-((1S,3R)-2-(2-fluoro-2-methylpropyl)-3-methyl-2,3,4,9-tetrahydro-1H-pyrido[3,4-b]indol-1-yl)pyrazin-2-yl)oxy)ethyl)propan-1-amine] | 3.3 | 0.43 nM | 88% | 227 µM (≈ 104 µg/mL) | 75% | 1.3 % free | –
COc1cc(OCCNCCCF)ncc1[C@@H]1c2[nH]c3ccccc3c2C[C@@H](C)N1CC(F)(F)F [Example 41, 3-Fluoro-N-(2-((4-methoxy-5-((1R,3R)-3-methyl-2-(2,2,2-trifluoroethyl)-2,3,4,9-tetrahydro-1H-pyrido[3,4-b]indol-1-yl)pyridin-2-yl)oxy)ethyl)propan-1-amine] | 3.2 | 0.14 nM | 74% | 389 µM (≈ 192 µg/mL) | 89% | 2.4 % free | –
C[C@@H]1Cc2c([nH]c3ccccc23)[C@@H](c2ccc(OCCNCCCF)cc2F)N1CC(F)F [Example 48, N-(2-(4-((1R,3R)-2-(2,2-difluoroethyl)-3-methyl-2,3,4,9-tetrahydro-1H-pyrido[3,4-b]indol-1-yl)-3-fluorophenoxy)ethyl)-3-fluoropropan-1-amine] | 3.4 | 0.26 nM | 58% | 94 µM (≈ 43.6 µg/mL) | 65% | – | –
C[C@@H]1Cc2c([nH]c3ccccc23)[C@@H](c2c(F)cc(N(C)CCNCCCF)cc2F)N1CC(F)F [Example 49, N1-(4-((1R,3R)-2-(2,2-difluoroethyl)-3-methyl-2,3,4,9-tetrahydro-1H-pyrido[3,4-b]indol-1-yl)-3,5-difluorophenyl)-N2-(3-fluoropropyl)-N1-methylethane-1,2-diamine] | – | 0.25 nM | 100% | 70 µM (≈ 34.6 µg/mL) | 95% | 0.40 % free | –
C[C@@H]1Cc2c([nH]c3ccccc23)[C@@H](c2c(F)cc(NCCNCCCF)cc2F)N1CC(F)F [Example 54, N1-(4-((1R,3R)-2-(2,2-difluoroethyl)-3-methyl-2,3,4,9-tetrahydro-1H-pyrido[3,4-b]indol-1-yl)-3,5-difluorophenyl)-N2-(3-fluoropropyl)ethane-1,2-diamine] | – | 0.13 nM | 87% | 242 µM (≈ 116 µg/mL) | 92% | 1.3 % free | –
C[C@@H]1Cc2c([nH]c3ccccc23)[C@@H](c2ccc(OCCNCCCF)cc2)N1CC(F)F [Example 56, N-(2-(4-((1R,3R)-2-(2,2-difluoroethyl)-3-methyl-2,3,4,9-tetrahydro-1H-pyrido[3,4-b]indol-1-yl)phenoxy)ethyl)-3-fluoropropan-1-amine] | 3.3 | 0.4 nM | 74% | 184 µM (≈ 82 µg/mL) | 66% | – | –
C[C@@H]1Cc2c([nH]c3ccccc23)[C@@H](c2cnc(OCCNCCCF)cn2)N1CC(F)F [Example 70, N-(2-((5-((1S,3R)-2-(2,2-difluoroethyl)-3-methyl-2,3,4,9-tetrahydro-1H-pyrido[3,4-b]indol-1-yl)pyrazin-2-yl)oxy)ethyl)-3-fluoropropan-1-amine] | 2.4 | 0.88 nM | – | 607 µM (≈ 272 µg/mL) | – | 11 % free | –
C[C@@H]1Cc2c([nH]c3ccccc23)[C@@H](c2cnc(NCCNCCCF)cn2)N1CC(F)F [Example 71, N1-(5-((1S,3R)-2-(2,2-difluoroethyl)-3-methyl-2,3,4,9-tetrahydro-1H-pyrido[3,4-b]indol-1-yl)pyrazin-2-yl)-N2-(3-fluoropropyl)ethane-1,2-diamine] | 2.3 | 0.83 nM | – | > 1000 µM | – | 13 % free | –
COc1cc(OCCNCCCF)ccc1[C@@H]1c2[nH]c3ccccc3c2C[C@@H](C)N1CC(F)(F)F [Example 73, 3-fluoro-N-(2-(3-methoxy-4-((1R,3R)-3-methyl-2-(2,2,2-trifluoroethyl)-2,3,4,9-tetrahydro-1H-pyrido[3,4-b]indol-1-yl)phenoxy)ethyl)propan-1-amine] | > 3.2 | 0.094 nM | – | 51 µM (≈ 25.2 µg/mL) | – | 0.66 % free | –
COc1cc(OCCNCCCF)ccc1[C@@H]1c2[nH]c3ccccc3c2C[C@@H](C)N1CC(C)(F)F [Example 74, N-(2-(4-((1R,3R)-2-(2,2-difluoropropyl)-3-methyl-2,3,4,9-tetrahydro-1H-pyrido[3,4-b]indol-1-yl)-3-methoxyphenoxy)ethyl)-3-fluoropropan-1-amine] | 3.9 | 0.14 nM | – | 30 µM (≈ 14.7 µg/mL) | – | 0.33 % free | –
COc1nc(OCCNCCCF)ccc1[C@@H]1c2[nH]c3ccccc3c2C[C@@H](C)N1CC(C)(F)F [Example 77, N-(2-((5-((1R,3R)-2-(2,2-difluoropropyl)-3-methyl-2,3,4,9-tetrahydro-1H-pyrido[3,4-b]indol-1-yl)-6-methoxypyridin-2-yl)oxy)ethyl)-3-fluoropropan-1-amine] | > 3.6 | 0.71 nM | – | 108 µM (≈ 53 µg/mL) | – | 0.19 % free | (85%)
